# In patent EP0386667B1, “6-Amino-6-desoxyfumagillols, production and use thereof” (Takeda Chemical Industries, Ltd., priority 1989, dated 1990):
# Tests used:
# [1] = system: bFGF-induced angiogenesis; assay: angiogenesis inhibitory activity by the rat cornea micropocket method; type: in vivo, Sprague-Dawley rats; settings: number of rats on which angiogenesis inhibitory activity was observed relative to the number of rats tested, sample pellet 20 µg beside bFGF (250 ng) pellet in cornea, observed after 10 days; for responders at 20 µg/pellet: Rattus norvegicus, 240 h, read-out: Inhibitory Rate (converted)
# Procedure: The object compounds (I) obtained in the Working Examples given below were evaluated for angiogenesis inhibitory activity by the rat cornea micropocket method.
# Essentially the same method of Gimbrone et al. [J. National Cancer Institute, 52, 413-419 (1974)] was followed. Thus, adult male Sprague-Dawley rats 11 to 16 week old) were anesthetized with nembutal and locally anesthetized by instillation of xylocaine eyedrops onto the eyeball. The cornea was incised to a length of about 2 mm at about 2 mm inside from the corneal circumference by means of an injection needle, and a sustained release pellet containing basic fibroblast growth growth factor (bFGF; bovine brain-derived, purified product; R & D Inc.) and a sustained release pellet containing the test sample were inserted side by side into the incision so that the bFGF pellet was located on the central side in the cornea. In the control group, the bFGF pellet and a sample-free pellet were inserted into the cornea. After 10 days, the cornea was observed under a stereoscopic microscope.
# The sustained release pellets were prepared in the following manner. An ethylene-vinyl acetate copolymer (Takeda Chemical Industries, Ltd.) was dissolved in dichloromethane to a concentration of 8%. A 3 µl portion of the solution was air-dried on a glass dish, an aqueous solution of bFGF (250 ng) was then placed thereon and air-dried and, finally 3 µl of the above ethylene-vinyl acetate copolymer solution was placed further thereon and air-dried to give a sandwich sheet. This sandwich sheet was made round into a bFGF pellet. The test sample pellets were prepared by dissolving each sample in ethanol in a concentration of 20 µg/2 µl, mixing the solution with 6 µl of an ethylene-vinyl acetate copolymer solution, air-drying the mixed solution in a glass dish and making the thus-obtained sheet round.
# Incidentally, in the Table 1 below, the inhibitory rate means the number of rats on which angiogenesis inhibitory activity was observed relative to the number of rats tested.
# [2] = system: Human umbilical vein endothelial cells; assay: inhibition of human umbilical vein endothelial cell growth (MTT); type: cell-based; settings: rFGF 2 ng/ml, 5-day culture, concentration giving 50% OD value of control; for IC50: Homo sapiens, Endothelial cell, 120 h, read-out: IC₅₀
# Procedure: Human umbilical vein endothelial cells were isolated by perfusion of an umbilical vein with a trypsin-containing medium. The cells were cultured in sequence in GIT medium (Nihon Pharm. In.) supplemented with 2.5% fetal bovine serum and 2.0 ng/ml or recombinant human fibroblast growth factor (hereinafter simply referred to rFGF, prepared at Biotechnology Research Laboratories, Takeda Chemical Industries, Ltd.).
# A suspension of human vein endothelial cells at the cell density of 2 x 10³ (100 µl) was seeded on 96-well incubation plate (Nunc, 1-67008), and incubation was conducted in a gas-controlled thermostat vessel. […] After 5-day culture, the medium was removed by suction, 100 µl of 1 mg/ml of MTT solution [3-(4,5-dimethyl-2-thiazolyl)-2,5-diphenyl-2H-tetrazolium bromide was dissolved in the medium] was added and kept warming for 4 hours. Then, 100 µl of a 10% SDS solution (aqueous solution of sodium dodecyl sulfate) was added, and the mixture was kept warming for 5-6 hours. The cells and MTT pigment were solubilized, and the optical density ([…]) was measured using a spectrophotometer. The OD value of the control group to which no test sample was added was set as 100%, and the activity of each test sample for inhibiting endothelial cell growth was shown in Table 2 by the concentration of the test compound giving 50% OD value, i.e. IC₅₀ value.
Compound,responders at 20 µg/pellet [1],IC50 [2],Inhibitory Rate [1],IC₅₀ [2]
"CO[C@@H]1[C@H](NC(=O)Nc2cccc3ccccc23)CC[C@]2(CO2)[C@H]1[C@@]1(C)O[C@@H]1CC=C(C)C [Example 11, 6α-[N′-(1-naphthyl)ureido]-6-desoxyfumagillol]",100%,0.34 ng/mL,–,–
"CO[C@@H]1[C@H](NC(=O)OCC(C)C)CC[C@]2(CO2)[C@H]1[C@@]1(C)O[C@@H]1CC=C(C)C [Example 7, 6α-(Isobutyloxy-carbonylamino)-6-desoxyfumagillol]",100%,0.17 ng/mL,–,–
"CO[C@@H]1[C@H](N)CC[C@]2(CO2)[C@H]1[C@@]1(C)O[C@@H]1CC=C(C)C [Example 1, 6α-Amino-desoxyfumagillol]",–,7.92 ng/mL,–,–
"CO[C@@H]1[C@H](NC(=O)c2ccccc2)CC[C@]2(CO2)[C@H]1[C@@]1(C)O[C@@H]1CC=C(C)C [Example 8, 6α-Benzoylamino-6-desoxyfumagillol]",85.7%,0.2 ng/mL,–,–
"CO[C@@H]1[C@H](N(C)C(C)=O)CC[C@]2(CO2)[C@H]1[C@@]1(C)O[C@@H]1CC=C(C)C [Example 3, 6α-(Acetyl)methylamino-6-desoxyfumagillol]",50%,3.21 ng/mL,–,–
"6β-(N′-chloroacetylureido)-4′,5′-dihydro-6-desoxyfumagillol [Example 14]",–,–,5/5,0.14 ng/mL
"CO[C@@H]1[C@H](NC(C)=O)CC[C@]2(CO2)[C@H]1[C@@]1(C)O[C@@H]1CC=C(C)C [Example 5, 6α-Acetylamino-6-desoxyfumagillol]",57.1%,0.06 ng/mL,–,–
"CO[C@@H]1[C@H](NC(=S)Nc2cccc3ccccc23)CC[C@]2(CO2)[C@H]1[C@@]1(C)O[C@@H]1CC=C(C)C [Example 10, 6α-[N′-(1-naphthyl)thioureido]-6-desoxyfumagillol]",40%,8.13 ng/mL,–,–
"CO[C@@H]1[C@@H](N)CC[C@]2(CO2)[C@H]1[C@@]1(C)O[C@@H]1CC=C(C)C [Example 16, 6β-Amino-6-desoxyfumagillol]",50%,9.49 ng/mL,–,–
"CO[C@@H]1[C@H](NC(=O)NC(=O)CCl)CC[C@]2(CO2)[C@H]1[C@@]1(C)O[C@@H]1CC=C(C)C [Example 9, 6α-(N′-chloroacetylureido)-6-desoxyfumagillol]",100%,0.057 ng/mL,–,–
"CO[C@@H]1[C@@H](N2CCCC2)CC[C@]2(CO2)[C@H]1[C@@]1(C)O[C@@H]1CC=C(C)C [Example 19, 6β-Pyrrolidino-6-desoxyfumagillol]",66.7%,–,–,–
"CO[C@@H]1[C@H](NS(=O)(=O)c2ccc(C)cc2)CC[C@]2(CO2)[C@H]1[C@@]1(C)O[C@@H]1CC=C(C)C [Example 6, 6α-(p-Toluenesulfonylamino)-6-desoxyfumagillol]",75%,7.04 ng/mL,–,–
"CO[C@@H]1[C@H](NC(N)=O)CC[C@]2(CO2)[C@H]1[C@@]1(C)O[C@@H]1CC=C(C)C [Example 13, 6α-Ureido-6-desoxyfumagillol]",100%,0.1 ng/mL,–,–
"CO[C@@H]1[C@H](NC(=O)NCCCl)CC[C@]2(CO2)[C@H]1[C@@]1(C)O[C@@H]1CC=C(C)C [Example 12, 6α-[N′-(2-chloroethyl)ureido]-6-desoxyfumagillol]",–,1.16 ng/mL,–,–
"CO[C@@H]1[C@H](Nc2ccccc2)CC[C@]2(CO2)[C@H]1[C@@]1(C)O[C@@H]1CC=C(C)C [Example 2, 6α-Phenylamino-6-desoxyfumagillol]",62.5%,–,–,–
"CO[C@H]1[C@H]([C@@]2(C)O[C@@H]2CC=C(C)C)[C@]2(CC[C@@H]1[N+]1(C)CCCC1)CO2 [Example 20, 6β-Pyrrolidino-6-desoxyfumagillol methyl iodide]",42.9%,–,–,–
